Source: patent publication US20250057913A1, “USE OF SOMATOSTATIN AGONIST IN THE TREATMENT OF SSTR3 EXPRESSING TUMORS” (ITALFARMACO SPA, priority 2021, published 2025)

Key:
SSTR5-tGFP = SSTR5-tGFP (Homo sapiens, UniProt P35346); assay: Internalization of SSTR5 in U2OS transfected cells; format: cell-based; parameters: expressed in transfected cells; host or cells: U2OS
Source text: (§1) HEK293 cells transfected with human SSTRs, and U20S cells transfected with human GFP-tagged receptors (SSTR2-tGFP, SSTR3-tGFP, SSTR5-tGFP).

SSTR3 [1] = biological target: T1, SSTR3 (Homo sapiens, UniProt P32745); assay: GIRK-based fluorescence membrane potential assay, HEK293-GIRK2-GFP-HA-hSST3
Source text: The concentrations used are indicated. […] Data points represent mean±S.E.M.
(§4) Therefore, G protein-signaling mediated by SSTR agonists was studied using a GIRK-based fluorescence membrane potential assay both in HEK293 cells transfected with hSSTR3, and in AtT20 wild-type as well as hSSTR3-transfected cells.

IGF1 levels = IGF1 levels in dogs; format: in vivo, dog
SSTR2-tGFP = SSTR2-tGFP (Homo sapiens, UniProt P30874); assay: Internalization of SSTR2 in U2OS transfected cells; format: cell-based; parameters: expressed in transfected cells; host or cells: U2OS
Source text: as §1

NT-3 cell line spheroids = assay: Cytotoxic activity on NT-3 cell line spheroids; format: cell-based, human
Experimental: NT-3 well-differentiated pancreatic neuroendocrine (PanNET) cell line (32) is an in-vitro model for pancreatic tumours.
Said cells were cultured in RPMI 1640 Medium GlutaMAX™ with 10% FBS, 1% Penicillin/Streptomycin, 20ng/ml EGF (AF-100-15, Peprotech), 10 ng/ml FGF (100-18B, Peprotech).
3D spheroids were generated by seeding 2000 cells/well in a 96-well ULA plate (Corning). Four replicates for each condition were seeded.
The spheroid formation required 4 days before starting the treatment.
The treatment was repeated every 3 days by replacing 50% of the medium (to avoid spheroid removal) with new medium containing 2× desired drug concentration.
Spheroid morphology was monitored every day during the treatment and pictures were taken on day 0, 4, 7, 11, 14, 18. Day 0 corresponds to the first day of treatment. Pictures were taken from the same well every time point.

SSTR5 [2] = biological target: T2, SSTR5 (Homo sapiens, UniProt P35346); assay: SSTR5 internalization in transfected HEK293 cells; format: cell-based; parameters: expressed in transfected cells; host or cells: HEK293 co-expressing GIRK2-GFP
Source text: (§2) HEK293 cells transfected with human SSTRs, and U20S cells transfected with human GFP-tagged receptors (SSTR2-tGFP, SSTR3-tGFP, SSTR5-tGFP). SST14 and SST28 were included as reference compounds in the first and second experiments, respectively.

[3] = system: NFPAs in MENX (homozygous mutant) rats; assay: Efficacy against endogenous NFPAs in MENX rat model; format: in vivo; conditions: for number of Ki67-positive cells per 100.000 μm^2: end of treatment
Experimental: MRI was performed every 14 days and the tumor volume was normalized against the volume at day 0. Male and female rat tumors are shown separately. Data presented are the mean±SEM. #, not significant; *, p-value <0.05; **, p-value <0.001.
(A, B) Number of Ki67-positive cells per 100.000 μm2 in tumors of rats belonging to the 2 groups (ITF2984-treated and control) and both sexes. Shown is the mean±SEM. *, p-value <0.05; **, p-value <0.001. […]
At the end of the treatment, pituitary tissues were collected for ex vivo analyses. […] The difference in the number of Ki67-positive cells between placebo-and ITF2984-treated female rats is significant (p=0.031). […]

SSTR2 [4] = biological target: T3, SSTR2 (Homo sapiens, UniProt P30874); assay: cell-based; parameters: expressed in transfected cells; host or cells: HEK293 co-expressing GIRK2-GFP
Source text: as §4

SSTR3 [5] = biological target: T1, SSTR3; assay: SSTR3 internalization in transfected HEK293 cells (confocal microscopy); format: cell-based; parameters: expressed in transfected cells; conditions: HEK293, 1 μM or 10 μM, 30 min
Source text: Cells were then fixed, stained with the anti-HA antibody and examined by confocal microscopy. Shown are representative images from one of at least three independent experiments performed in duplicate.
as §2

[6] = system: pentobarbital-induced GH release; assay: pentobarbital-induced GH release in rats; format: in vivo, rat
SSTR3 [7] = biological target: T1, SSTR3; assay: SSTR binding affinity (Table 1)
Source text: (§3) IC50 values are from one representative experiment. Confidence interval from 3 independent experiments (Table 1).

SSTR5 [8] = biological target: T2, SSTR5; assay: SSTR binding affinity (Table 1)
Source text: as §3

SSTR1 = SSTR1 (Homo sapiens, UniProt P30872); assay: SSTR binding affinity (Table 1)
Source text: as §3

SSTR2 [9] = biological target: T3, SSTR2; assay: SSTR2 internalization in transfected HEK293 cells; format: cell-based; parameters: expressed in transfected cells
Source text: as §1

SSTR2 [10] = biological target: T3, SSTR2; assay: SSTR binding affinity (Table 1); parameters: expressed in transfected cells; host or cells: HEK293 co-expressing GIRK2-GFP
Source text: as §3

opioid receptors = assay: single dose binding assays on opioid receptors; conditions: single dose 10^−5 M
[11] = system: primary cultures of rat anterior pituitary cells; assay: Inhibition of GHRH-stimulated GH release in vitro; format: cell-based; conditions: rat anterior pituitary primary cell cultures
Source text: FIG. 4. Inhibition of GHRH-stimulated GH release in vitro using primary cultures of rat anterior pituitary cells.
Results are expressed as mean values±SD of 3 experiments.

SSTR5 [12] = biological target: T2, SSTR5
Source text: as §4

T1 sequence (P32745 whole entry): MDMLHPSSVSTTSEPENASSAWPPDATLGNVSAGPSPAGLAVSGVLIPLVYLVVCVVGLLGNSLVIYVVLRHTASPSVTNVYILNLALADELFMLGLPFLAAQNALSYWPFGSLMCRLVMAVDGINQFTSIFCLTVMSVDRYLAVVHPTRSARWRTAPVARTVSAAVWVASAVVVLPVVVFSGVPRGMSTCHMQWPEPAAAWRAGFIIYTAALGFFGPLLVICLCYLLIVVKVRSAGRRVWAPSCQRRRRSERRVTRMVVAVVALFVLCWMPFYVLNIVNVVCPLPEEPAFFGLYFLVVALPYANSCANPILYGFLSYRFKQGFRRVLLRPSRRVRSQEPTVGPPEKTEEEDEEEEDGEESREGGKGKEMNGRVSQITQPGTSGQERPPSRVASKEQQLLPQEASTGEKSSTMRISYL
T2 sequence (P35346 whole entry): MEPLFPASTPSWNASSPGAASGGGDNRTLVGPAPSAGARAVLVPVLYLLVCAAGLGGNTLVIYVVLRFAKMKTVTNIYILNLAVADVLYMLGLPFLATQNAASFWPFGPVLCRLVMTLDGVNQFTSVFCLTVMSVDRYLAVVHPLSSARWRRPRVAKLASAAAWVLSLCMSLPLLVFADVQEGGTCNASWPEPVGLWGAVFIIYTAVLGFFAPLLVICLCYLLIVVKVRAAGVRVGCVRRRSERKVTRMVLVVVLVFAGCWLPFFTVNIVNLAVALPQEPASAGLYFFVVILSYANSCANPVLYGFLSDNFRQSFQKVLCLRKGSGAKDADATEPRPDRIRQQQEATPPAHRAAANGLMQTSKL
T3 sequence (P30874 whole entry): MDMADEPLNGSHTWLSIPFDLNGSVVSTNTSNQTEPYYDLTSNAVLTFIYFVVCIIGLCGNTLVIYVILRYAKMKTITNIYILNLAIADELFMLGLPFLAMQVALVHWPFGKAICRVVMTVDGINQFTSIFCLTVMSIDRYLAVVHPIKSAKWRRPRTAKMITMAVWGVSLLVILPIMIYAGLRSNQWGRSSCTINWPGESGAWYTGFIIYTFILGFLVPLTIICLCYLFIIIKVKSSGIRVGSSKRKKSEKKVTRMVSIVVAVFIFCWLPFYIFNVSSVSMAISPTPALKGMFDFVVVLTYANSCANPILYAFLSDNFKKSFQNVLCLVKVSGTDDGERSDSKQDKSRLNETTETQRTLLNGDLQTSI
Sequence of SSTR5-tGFP (P35346 whole entry): as the sequence (P35346 whole entry) above
Sequence of SSTR2-tGFP (P30874 whole entry): as the sequence (P30874 whole entry) above
Sequence of SSTR1 (P30872 whole entry): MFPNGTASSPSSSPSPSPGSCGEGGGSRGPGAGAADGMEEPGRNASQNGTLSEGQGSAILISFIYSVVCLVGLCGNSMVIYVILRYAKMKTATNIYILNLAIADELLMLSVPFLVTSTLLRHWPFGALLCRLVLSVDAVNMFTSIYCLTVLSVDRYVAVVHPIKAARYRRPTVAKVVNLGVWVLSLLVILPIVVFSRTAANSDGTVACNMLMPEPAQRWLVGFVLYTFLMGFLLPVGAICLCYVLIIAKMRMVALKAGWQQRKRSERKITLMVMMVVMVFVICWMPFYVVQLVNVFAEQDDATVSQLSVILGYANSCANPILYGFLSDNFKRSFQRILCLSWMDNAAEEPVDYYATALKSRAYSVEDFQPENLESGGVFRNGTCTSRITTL

SMILES: COc1cc2cccc(OC)c2cc1C[C@H]1NC(=O)[C@H](Cc2ccc(O)cc2)NC(=O)[C@@H]2C[C@@H](OC(=O)NCCN)CN2C(=O)[C@H](Cc2ccccc2)NC(=O)[C@H](Cc2ccc(OCc3ccccc3)cc2)NC(=O)[C@H](CCCCN)NC1=O [ITF2984, (3S,6R,9S,12S,15S,19R,20aS)-9-(4-aminobutyl)-15-benzyl-12-(4-(benzyloxy)benzyl)-6-((3,8-dimethoxynaphthalen-2-yl)methyl)-3-(4-hydroxybenzyl)-1,4,7,10,13,16-hexaoxoicosahydropyrrolo[1,2-a][1,4,7,10,13,16]hexaazacyclooctadecin-19-yl (2-aminoethyl)carbamate]
- Mean of internalized fluorescence, SSTR5 (SSTR5-tGFP; 1 μM): 34.6 AU
- Mean of internalized fluorescence, SSTR5 (SSTR5-tGFP; 10 μM): 42.0 AU
- EC50 (SSTR3 [1]): 10.7 ± 1.7 nM
- G-protein signaling potency at SSTR3 versus Octreotide or Pasireotide (SSTR3 [1]; more potent than Octreotide or Pasireotide): about 5 times
- IGF1 levels (IGF1 levels): decreased IGF1 levels
- Mean of internalized fluorescence, SSTR2 (SSTR2-tGFP; 1 μM): 37.3 AU
- Mean of internalized fluorescence, SSTR2 (SSTR2-tGFP; 10 μM): 35.9 AU
- spheroid morphology at the highest concentration (NT-3 cell line spheroids; 2.56 μM, 18 days): completed destroyed
- concentration reducing the spheroid volume (NT-3 cell line spheroids; starting from day 7): ≥ 640 nM
- internalization of SSTR5 (SSTR5 [2]): only a partial internalization
- signs of discomfort ([3]; end of the treatment): no signs of discomfort
- tumor volume (MRI) ([3]; female rats, 56 days, 12.5 mg/kg every 14 days): only a slight increase in tumor volume
- number of Ki67-positive cells per 100.000 μm^2 ([3]; female rats): 134
- change in Ki67-positive cells versus placebo ([3]; male rats): −33.5%
- number of Ki67-positive cells per 100.000 μm^2 ([3]; male rats): 250
- EC50 (SSTR2 [4]): 312 ± 29.3 nM
- internalization of SSTR3 (SSTR3 [5]): strong internalization
- pentobarbital-induced GH release [6]: inhibited pentobarbital-induced GH release
- IC50 (SSTR3 [7]): nanomolar range
- affinity compared to octreotide (SSTR3 [7]; compared to octreotide): higher affinity
- IC50 (SSTR5 [8]): nanomolar range
- affinity compared to octreotide (SSTR5 [8]; compared to octreotide): higher affinity
- affinity compared to octreotide (SSTR1): higher affinity
- internalization of SSTR2 (SSTR2 [9]): only a partial internalization
- IC50 (SSTR2 [10]): nanomolar range
- affinity compared to octreotide (SSTR2 [10]; compared to octreotide): lower affinity
- replacement of agonists (opioid receptors): fully replace agonists
- inhibition of GH release [11]: potently inhibited GH release
- EC50 (SSTR5 [12]): 95.1 ± 15.2 nM
